Test results as given in patent US20230303564A1, “PYRIMIDINE RING COMPOUND” (MEDSHINE DISCOVERY INC., priority 2020, published 2023).

Target: CDK2/CyclinA2 (Homo sapiens (Human), UniProt P24941)
Test: CDK2/CyclinA2 enzyme activity test (ADP-Glo)
Assay type: biochemical
Details: 50 μM ATP, 25° C. 60 minutes, read-out: CDK2/Cyclin A2 IC50
Procedure: CDK2/CyclinA2 Enzyme Reaction System
(§1) Enzymes, substrates, ATP, and inhibitors were diluted by kinase buffer in the kit. The compounds to be tested were diluted 5-fold with a multi-channel pipette to the eighth concentration, that is, from 50 μM to 0.65 nM, the concentration of DMSO was 5%, and a double-hole experiment was set up. 1 μL of each concentration gradient of inhibitors, 2 μL of CDK2/CyclinA2 enzyme (1.6 ng), 2 μL mixture of substrate and ATP (50 μM ATP, 0.1 μg/μL substrate) were added to the microplates, and the final concentration gradient of the compound was 10 μM to 0.13 nM. The reaction system was reacted at 25° C. for 60 minutes. After the reaction, 5 μL of ADP-Glo reagent was added to each well, the reaction was carried out at 25° C. for 40 minutes, after the reaction was completed, 10 μL of kinase detection reagent was added to each well, the reaction was carried out at 25° C. for 30 minutes, the multiple label analyzer was used to read the chemiluminescence with an integration time of 0.5 seconds
(§2) The equation (Sample−Min)/(Max−Min)*100% was used to convert the raw data into inhibition rate, and the value of IC50 can be obtained by curve fitting with four parameters (obtained by log (inhibitor) vs. response-Variable slope mode in GraphPad Prism). The enzymatic inhibitory activity of the compounds of the present disclosure on CDK1/CyclinB1, CDK2/CyclinA2, CDK2/CyclinE1, CDK4/CyclinD1, CDK6/CyclinD1, CDK7/CyclinH/MAT1, CDK9/CyclinT1 was provided in Table 1.

Row | Structure (SMILES) | IC50
1 | CS(=O)(=O)N1CCC(Nc2ncc3ccnc(NC4CCCC4)c3n2)CC1 [Compound 4] | 0.27 nM
2 | C[C@@]1(O)CCC[C@H]1Nc1nc(C(F)F)cc2cnc(NC3CCN(S(C)(=O)=O)CC3)nc12 [Compound 14] | 1.25 nM

Target: CDK2/CyclinE1 (Homo sapiens (Human), UniProt P24941)
Test: CDK2/CyclinE1 enzyme activity test (ADP-Glo)
Assay type: biochemical
Details: 150 μM ATP, 25° C. 60 minutes, read-out: CDK2/Cyclin E1 IC50
Procedure: CDK2/CyclinE1 Enzyme Reaction System
as §1, with “CDK2/CyclinE1” for “CDK2/CyclinA2”, “(2” for “(1.6”, “(150” for “(50”, “seconds.” for “seconds”
as §2

Row | Structure (SMILES) | IC50
3 | C[C@@]1(O)CCC[C@H]1Nc1nc(C(F)F)cc2cnc(NC3CCN(S(C)(=O)=O)CC3)nc12 [Compound 14] | 4.15 nM
4 | CC(Nc1nc(C(F)F)cc2cnc(NC3CCN(S(C)(=O)=O)CC3)nc12)C(F)(F)F (centres unmarked) [Compound 18] | 4.72 nM
5 | C[C@@H]1CCCN1c1nc(C(F)F)cc2cnc(NC3CCN(S(C)(=O)=O)CC3)nc12 [Compound 25] | 4.02 nM

Target: CDK4/CyclinD1 (Homo sapiens (Human), UniProt P11802)
Sequence (P11802 whole entry): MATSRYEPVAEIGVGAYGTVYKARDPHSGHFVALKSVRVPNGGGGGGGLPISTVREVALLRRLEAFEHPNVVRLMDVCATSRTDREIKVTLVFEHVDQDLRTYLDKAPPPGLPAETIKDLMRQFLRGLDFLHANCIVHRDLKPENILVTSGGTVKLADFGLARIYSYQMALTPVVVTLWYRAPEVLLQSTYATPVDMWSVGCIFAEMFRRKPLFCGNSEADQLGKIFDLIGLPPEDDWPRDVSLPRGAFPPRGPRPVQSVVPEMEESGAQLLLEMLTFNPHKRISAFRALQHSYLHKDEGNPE
Sequence (P24385 whole entry partner): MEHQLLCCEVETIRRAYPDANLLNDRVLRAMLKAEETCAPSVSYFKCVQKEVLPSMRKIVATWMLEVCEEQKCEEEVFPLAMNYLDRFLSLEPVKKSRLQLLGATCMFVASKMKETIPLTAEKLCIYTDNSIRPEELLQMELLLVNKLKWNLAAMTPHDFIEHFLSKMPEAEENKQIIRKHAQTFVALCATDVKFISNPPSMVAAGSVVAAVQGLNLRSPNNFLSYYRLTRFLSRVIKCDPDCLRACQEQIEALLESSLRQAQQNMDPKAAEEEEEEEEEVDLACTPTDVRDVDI
Test: CDK4/CyclinD1 enzyme activity test (LANCE Ultra TR-FRET)
Assay type: biochemical
Details: 350 μM ATP, 25° C. 120 minutes, read-out: CDK4/Cyclin D1 IC50
Procedure: CDK4/CyclinD1 Enzyme Reaction System
(§3) Preparation of Kinase Buffer:
(§4) The composition of the buffer: 50 mM of hydroxyethylpiperazine ethanesulfonic acid solution at pH 7.5, 1 mM of ethylenediaminetetraacetic acid, 10 mM of magnesium chloride, 0.01% Brij-35, and 2 mM of dithiothreitol.
(§5) Enzymes, substrate LANCE Ultra ULight™-4E-BP-1(Thr37146) Peptide, ATP, and inhibitors were diluted by kinase buffer.
(§6) The compounds to be tested were diluted 5-fold with a multi-channel pipette to the eighth concentration, that is, from 40 μM to 0.512 nM, the concentration of DMSO was 4%, and a double-hole experiment was set up. […] The reaction system was reacted at 25° C. for 120 minutes. After the reaction, 5 μL mixture of EDTA and 2× LANCE™ Detection Buffer (1:1) were added to each well, the reaction was carried out at 25° C. for 5 minutes, after the reaction was completed, 5 μL of LANCE Ultra Eu-anti-P-4E-BP1(Thr37MS) (4 nM) was added to each well, the reaction was carried out at 25° C. for 60 minutes, the reaction signal was detected by Nivo instrument according to the principle of time-resolved fluorescence resonance energy transfer.
as §2

Row | Structure (SMILES) | IC50
6 | CS(=O)(=O)N1CCC(Nc2ncc3ccnc(NC4CCCC4)c3n2)CC1 [Compound 4] | 1.5 nM
7 | C[C@@]1(O)CCC[C@H]1Nc1nc(C(F)F)cc2cnc(NC3CCN(S(C)(=O)=O)CC3)nc12 [Compound 14] | 2.59 nM
8 | CC(Nc1nc(C(F)F)cc2cnc(NC3CCN(S(C)(=O)=O)CC3)nc12)C(F)(F)F (centres unmarked) [Compound 18] | 1.56 nM

Target: CDK6/CyclinD1 (Homo sapiens (Human), UniProt Q00534)
Sequence (Q00534 whole entry): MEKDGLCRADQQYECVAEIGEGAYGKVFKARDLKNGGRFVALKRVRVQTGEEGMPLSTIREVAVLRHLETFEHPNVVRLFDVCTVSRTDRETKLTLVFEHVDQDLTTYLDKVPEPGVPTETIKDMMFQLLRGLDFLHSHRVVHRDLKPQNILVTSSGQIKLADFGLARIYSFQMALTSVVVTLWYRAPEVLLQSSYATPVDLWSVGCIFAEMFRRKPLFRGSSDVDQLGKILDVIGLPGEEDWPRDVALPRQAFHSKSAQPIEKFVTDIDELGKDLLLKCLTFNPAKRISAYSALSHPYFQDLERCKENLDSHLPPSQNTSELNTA
Sequence (P24385 whole entry partner): as the sequence (P24385 whole entry partner) above
Test: CDK6/CyclinD1 enzyme activity test (LANCE Ultra TR-FRET)
Assay type: biochemical
Details: 250 μM ATP, 25° C. 120 minutes, read-out: CDK6/Cyclin D1 IC50
Procedure: CDK6/CyclinD1 Enzyme Reaction System
as §3, §4, §5, §6, §2

Row | Structure (SMILES) | IC50
9 | CS(=O)(=O)N1CCC(Nc2ncc3ccnc(NC4CCCC4)c3n2)CC1 [Compound 4] | 1.49 nM
10 | C[C@@]1(O)CCC[C@H]1Nc1nc(C(F)F)cc2cnc(NC3CCN(S(C)(=O)=O)CC3)nc12 [Compound 14] | 1.69 nM
11 | CC(Nc1nc(C(F)F)cc2cnc(NC3CCN(S(C)(=O)=O)CC3)nc12)C(F)(F)F (centres unmarked) [Compound 18] | 1.32 nM
12 | C[C@@H]1CCCN1c1nc(C(F)F)cc2cnc(NC3CCN(S(C)(=O)=O)CC3)nc12 [Compound 25] | 0.46 nM

Tested on: OVCAR-3 cells
Test: Cell activity test, anti-proliferation (CellTiter Glo), OVCAR-3
Assay type: cell-based, human
Details: OVCAR-3, 7 days of culture
Procedure: 2) Day 1: Laying Cell Plates
(6) 0.7 mL of cell suspension was pipetted into the counting cup, the cells were counted on ViCell XR, and the cell suspension was diluted separately with culture medium to the required cell concentration for laying cell plates: 1000/30 ul.
(7) Microplates (2 plates) were required, 100 uL of phosphate buffered saline was added to the peripheral wells of the 384-well plate, 30 uL of cell suspension was added to the other wells, and the cell plate was placed into incubator for culture.
(1) Compound preparation: the stock solution of the compound to be tested was 10 mM.
(2) The compound to be tested was diluted 3 times with DMSO for 10 gradients.
(2) The compound to be tested was diluted with culture medium, and the highest final concentration was 10 μM.
(4) 10 μL of the compound was pipetted into the 384-well plate, and then the cell plate was placed back into the incubator for culture.
4) Adding CTG and Reading the Plate
(1) After 7 days of culture, 50 ul CellTiter Glo was added to the cell plate, shaken for 10 minutes in the dark, and left at room temperature for 5 minutes.
(2) The plate was read on Envision with the program: US LUM 384 (CPS). The experiment was originally stored in the personal disk:
1. The mean and standard deviation of 0% inhibition (DMSO row, ZPE) and 100% inhibition (PBS row, HPE) were calculated;
2. Inhibition rate (%)=(1−(sample value-average value of 100% inhibition)/(average value of 0% inhibition-average value of 100% inhibition))*100;
3. The curve was fitted by GraphPad 8.0 software;

Row | Structure (SMILES) | IC50
13 | CC(Nc1nc(C(F)F)cc2cnc(NC3CCN(S(C)(=O)=O)CC3)nc12)C(F)(F)F (centres unmarked) [Compound 18] | 17 nM
14 | C[C@@H]1CCCN1c1nc(C(F)F)cc2cnc(NC3CCN(S(C)(=O)=O)CC3)nc12 [Compound 25] | < 1 nM

Tested on: not listed separately
Test: Pharmacokinetic evaluation in CD-1 (ICR) mice, oral
Assay type: in vivo, mouse
Details: male CD-1 (ICR) mice, oral 5 mg/kg, plasma
Procedure: Experimental Scheme of Compounds 18, 19 and 20
The healthy adult male CD-1 (ICR) mice used in this study were purchased from Pinghu Weitong Lihua Experimental Animal Technology Co., Ltd.
0.300 mL of the stock solution was measured and vortexed for 2 minutes to obtain a homogeneous suspension at a concentration of 1 mg/mL, and the administration vehicle was 1% HPMC in water.
Two male CD-1 (ICR) mice were given 5 mg/kg of the compound to be tested by intragastric administration.
The blood of two animals was collected at each time point by serial blood collection. 30 μL of whole blood was collected respectively at 0.25, 0.5, 1, 2, 4, 8, and 24 hours after administration. The whole blood was placed in an anticoagulant tube, centrifuged at 3200 g for 10 minutes at 4° C., plasma was prepared and stored at −60° C. or lower. The drug concentration in plasma was determined by LC/MS-MS.

Row | Structure (SMILES) | Oral exposure AUC0-t
15 | CC(Nc1nc(C(F)F)cc2cnc(NC3CCN(S(C)(=O)=O)CC3)nc12)C(F)(F)F (centres unmarked) [Compound 18] | 2.365 µM·h

Tested on: human ovarian cancer OVCAR-3 cells subcutaneous xenograft tumor
Test: In vivo efficacy study, OVCAR-3 subcutaneous xenograft tumor BALB/c nude mouse model
Details: Day 0 (at grouping), OVCAR-3 xenograft, BALB/c nude mice
Procedure: In vivo efficacy study of human ovarian cancer OVCAR-3 cells subcutaneous xenograft tumor BALB/c nude mouse model
Cell culture: Human ovarian cancer OVCAR-3 cells were monolayer cultured in vitro, the culture conditions were 10% fetal bovine serum, 100 U/mL Penicillin and 100 μg/mL Streptomycin were added in RPMI 1640 medium, cultured at 37° C. 5% CO2 incubator. Conventional digestion with trypsin-EDTA was performed for passage. When the cell saturation was 80%/90% and the number reached the required level, the cells were collected, counted, and inoculated.
Animals: BALB/c nude mice, female, 6-8 weeks old, weighed 18-22 grams. A total of 95 (42+ additional 53) animals were needed, provided by the Experimental Animal Management Department of Shanghai Institute of Family Planning Sciences (formerly Shanghai Sipulbichem).
Tumor inoculation: 0.2 mL (1×10^7) OVCAR-3 cells (with matrix glue, volume ratio of 1:1) were subcutaneously inoculated on the right back of each mouse, and the mice were grouped administrated when the average tumor volume reached about 150 mm^3.
Dosage and frequency of administration: Day 0 to Day 7, 10 mg/kg; Day 7 to Day 14, 10 mg/kg; Day 14 to Day 21, 30 mg/kg;
Experimental index: The experimental index was used to examine whether tumor growth was inhibited, delayed or cured. Tumor diameters were measured with vernier calipers twice a week. The calculation formula of tumor volume was: V=0.5a×b^2, wherein a and b represented the long and short diameters of the tumor, respectively.

Row | Structure (SMILES) | Tumor volume (Day 0)
16 | CC(Nc1nc(C(F)F)cc2cnc(NC3CCN(S(C)(=O)=O)CC3)nc12)C(F)(F)F (centres unmarked) [Compound 18] | 151 mm^3
17 | C[C@@H]1CCCN1c1nc(C(F)F)cc2cnc(NC3CCN(S(C)(=O)=O)CC3)nc12 [Compound 25] | 151 mm^3

Same assay, conditions: Day 7; 10 mg/kg from day 0 to day 7

Row | Structure (SMILES) | Tumor volume (Day 7)
18 | CC(Nc1nc(C(F)F)cc2cnc(NC3CCN(S(C)(=O)=O)CC3)nc12)C(F)(F)F (centres unmarked) [Compound 18] | 233 mm^3
19 | C[C@@H]1CCCN1c1nc(C(F)F)cc2cnc(NC3CCN(S(C)(=O)=O)CC3)nc12 [Compound 25] | 226 mm^3

Same assay, conditions: Day 14; 10 mg/kg from day 0 to day 14

Row | Structure (SMILES) | Tumor volume (Day 14)
20 | CC(Nc1nc(C(F)F)cc2cnc(NC3CCN(S(C)(=O)=O)CC3)nc12)C(F)(F)F (centres unmarked) [Compound 18] | 393 mm^3
21 | C[C@@H]1CCCN1c1nc(C(F)F)cc2cnc(NC3CCN(S(C)(=O)=O)CC3)nc12 [Compound 25] | 371 mm^3

Same assay, conditions: Day 21; 10 mg/kg day 0 to day 14, 30 mg/kg from day 14 to day 21

Row | Structure (SMILES) | Tumor volume (Day 21)
22 | CC(Nc1nc(C(F)F)cc2cnc(NC3CCN(S(C)(=O)=O)CC3)nc12)C(F)(F)F (centres unmarked) [Compound 18] | 529 mm^3
23 | C[C@@H]1CCCN1c1nc(C(F)F)cc2cnc(NC3CCN(S(C)(=O)=O)CC3)nc12 [Compound 25] | 611 mm^3
